Patent US6995269B2, “Guanidinobenzamides” (Chiron Corporation, priority 2000, dated 2006)

Key:
Type in all cases: in vivo
[1] = tested on: ob/ob mice; experiment: Oral glucose tolerance test (OGTT) in ob/ob mice at end of study; conditions: overnight fasted ob/ob mice at end of 4 week study, oral glucose load, vs vehicle
Experimental: (§1) In vivo studies were conducted to observe the effect of MCR-4 agonists on energy intake, body weight, hyperinsulinemia, and glucose levels. All studies were conducted with male-9–10 week old ob/ob mice which display early onset of obesity, insulin resistance and diabetes due to leptin deficiency. Mice were acclimated in the facility for 1 week before studies and are caged individually. Vehicle-treated (control) and drug treated mice studies were always run in parallel. In multi-day studies, mice (8–15 per group) were monitored for baseline body weight, fasting levels of glucose, insulin, blood lipids and energy expenditure and then injected twice daily (9 a.m. and 5 p.m.) with 3 mg/kg of the MC4-R agonist 4-[(N-cyclohexyl-3,5-dimethyl-piperazine-1-carboximidoyl)-amino]-N-[2-(2,4-dichlorophenyl)-ethyl]-benzamide for 4 weeks. Body weight as well as food and water intake were monitored daily. […] Energy expenditure (resting metabolic rate, i.e., O2 consumption and CO2 production) were monitored in air tight chambers at the end of the study on fed animals. O2 consumption and CO2 production were measured using Oxymax systems (Columbus Instruments). […] Blood glucose and oral glucose tolerance were measured using a glucose monitor (Onetouch sold by Lifescan). Free fatty acids were measured using an non-esterified free fatty acids enzymatic assay (Waco Chemicals). […]

[2] = tested on: ob/ob mice; experiment: Serum insulin levels after single IP dosing in ob/ob mice; conditions: overnight fasted ob/ob mice
Experimental: as §1

[3] = tested on: ob/ob mice; experiment: Food intake in ob/ob mice, 4 week IP treatment; conditions: 3 mg/kg IP twice daily for 4 weeks, vs vehicle
Experimental: as §1

[4] = tested on: ob/ob mice; experiment: Fasting blood glucose in ob/ob mice, 4 week IP treatment; conditions: ob/ob mice fasted overnight, 3 mg/kg IP twice daily for 4 weeks, vs vehicle
Experimental: as §1

[5] = tested on: ob/ob mice; experiment: Body weight in ob/ob mice, 4 week IP treatment; conditions: 3 mg/kg IP twice daily for 4 weeks
Experimental: as §1

[6] = tested on: ob/ob mice; experiment: Free fatty acid levels in ob/ob mice; conditions: ob/ob mice fasted overnight, drug treated IP vs vehicle
Experimental: as §1

CC1CN(C(=NC2CCCCC2)Nc2ccc(C(=O)NCCc3ccc(Cl)cc3Cl)cc2)CC(C)N1 (stereo not shown) [4-[(N-cyclohexyl-3,5-dimethyl-piperazine-1-carboximidoyl)-amino]-N-[2-(2,4-dichlorophenyl)-ethyl]-benzamide]
decrease of the area under the curve of glucose in OGTT [1]: 45%
decrease of serum insulin levels relative to vehicle ([2]; one hour after single IP dosing of 1 mg/kg): 27%
decrease of serum insulin levels relative to vehicle ([2]; one hour after single IP dosing of 3 mg/kg): 55%
food intake [3]: significant reduction in food intake
decrease in fasting blood glucose levels [4]: 47%
body weight less than the vehicle treated mice at the end of the study [5]: 19%
decrease in free fatty acid (FFA) levels [6]: 50%
